Measurements published in ChEMBL document CHEMBL1146759, “Chemo- and stereoselective synthesis of benzocycloheptene and 1-benzoxepin derivatives as alpha-sympathomimetic and anorexigenic agents” (Bioorg Med Chem Lett, 2004).
Active and inactive are the calls of the source. No cut-off for these calls is given here.

Experiments:
[1] = Effect on change in blood pressure in […]; no effect; format: functional, organism-based
[2] = Acute toxicity when administered intraperitoneally in mice; format: organism-based; conditions: mouse, in vivo, ip; read-out: ALD50
Mus musculus [3] = experiment: Protection against amphetamine toxicity in mice when administered percutaneously; no effect; format: functional, organism-based
[4] = Effect on change in blood pressure in mice; format: functional
Mus musculus [5] = experiment: Effective dose for anorexigenic activity when administered to mice intraperitoneally; format: functional; conditions: ip
Mus musculus [6] = experiment: Protection against amphetamine toxicity in mice when administered percutaneously; format: functional
Mus musculus [7] = experiment: Effective dose for anorexigenic activity when administered to mice intraperitoneally; no effect; format: functional, organism-based

SMILES | Change in blood pressure [1] | LD50 [2] [mg/kg] | ED50 (Mus musculus [3]) | Change in blood pressure [4] [mmHg] | ED50 (Mus musculus [5]) [mg/kg] | ED50 (Mus musculus [6]) [mg/kg] | ED50 (Mus musculus [7])
COc1cc2c(cc1OC)[C@H](O)[C@H](N)CCC2 | inactive | 150 | inactive |  |  |  | 
N[C@H]1CCCc2ccccc2[C@@H]1O | inactive | 150 | inactive |  |  |  | 
N[C@H]1CCOc2ccccc2[C@@H]1O |  | 500 |  | 32 | 55 |  | 
N[C@@H]1CCOc2ccccc2[C@@H]1O |  | 800 |  | 44 | 75 |  | 
N[C@@H]1CCCc2ccccc2[C@@H]1O | inactive | 150 |  |  |  | 73 | 
Cc1ccc2c(c1)[C@H](O)[C@H](N)CCO2 |  | 300 |  | 10 |  |  | inactive
COc1ccc2c(c1)[C@H](O)[C@@H](N)CCO2 |  | 150 |  | 40 |  |  | inactive
Cc1ccc2c(c1)[C@H](O)[C@@H](N)CCO2 |  | 150 |  | 38 |  |  | inactive
N[C@@H]1CCCc2cc(O)c(O)cc2[C@@H]1O |  | 150 | inactive |  |  |  | 
Cc1cc2c(cc1C)[C@H](O)[C@H](N)CCC2 | inactive | 150 | inactive |  |  |  | 
COc1ccc2c(c1)[C@H](O)[C@H](N)CCO2 |  | 150 |  | 20 |  |  | inactive
